Measurements from paper PMC3477139 (PLoS ONE, 2012).

Legend:
[1] = target: T1, human GLP-1R (Homo sapiens, UniProt P43220); assay: cAMP generation in intact HEK-GLP-1R cells; type: cell-based
T1 construct: expressed in transfected cells; vector pcDNA5/FRT
Description: (§1) HEK-Flp-In cells with stable recombinant expression of the human GLP-1R (HEK-GLP-1R) were cultured in DMEM with high glucose supplemented with 10% FBS, 100 µg/ml streptomycin and 100 units/ml penicillin sulphate. These cells were originally generated by transfection of HEK-Flp-In cells (Invitrogen: Paisley, U.K.) with pcDNA5/FRT containing the human GLP-1R. […] INS-1E cells were kindly provided by Prof. C.B. Wollheim of the University of Geneva, Switzerland [19]. These cells were used between passages 65–90 and cultured in RPMI media containing 11.1 mM glucose, 5% heat-inactivated FBS, 100 µg/ml streptomycin, 100 units/ml penicillin sulphate, 100 units/ml neomycin, 50 µM β-mercaptoethanol, 10 mM HEPES and 1 mM sodium pyruvate. All cells were cultured at 37°C in a 5% CO2 humidified atmosphere and passaged at confluence.
(§2) Confluent monolayers of HEK-GLP-1R cells cultured in 24-well plates pre-coated with poly-D-lysine (0.1% w/v) where washed twice with 0.5 ml Krebs-HEPES buffer (KHB, composition: 10 mM HEPES; 4.2 mM NaHCO3; 11.7 mM D-glucose; 1.18 mM MgSO4·7H2O; 1.18 mM KH2PO4; 4.69 mM KCl; 118 mM NaCl; 1.3 mM CaCl2·2H2O; pH 7.4) containing 0.1% (w/v) BSA (KHB-BSA) before incubation (10 min, 37°C) in 360 µl KHB-BSA containing 500 µM isobutylmethylxanthine (IBMX). Ligands or vehicle control (40 µl) were added and reactions terminated after the appropriate times by replacement of the aqueous phase with ice-cold 0.5 M trichloroacetic acid. INS-1E cells grown to confluence in 24-well plates were treated similarly with the exception that after washing in KHB, cells were incubated in 200 µl KHB-BSA containing 1.4 mM glucose without IBMX for 2 h followed by challenge with ligands (or vehicle) for 15 min at 37°C in 400 µl KHB-BSA, in the presence of 10 mM glucose and 500 µM IBMX. Reactions were terminated as above.
(§3) The cAMP was extracted from either intact cell or membrane preparations using a method identical to that for extraction of Ins(1,4,5)P3 [22]. Levels of cAMP were then determined by a competitive radioreceptor assay using binding protein purified from bovine adrenal glands and related to cellular protein assessed by Bradford assay.
(§4) Concentration-response curves were fitted using GraphPad Prism (GraphPad Software Inc., CA) using a standard four parameter logistic equation. All data are representative of n≥3 or are presented as mean+/±s.e.m., where n = 3 unless otherwise stated. Statistical analysis was by oneway ANOVA and where P<0.05, followed by Bonferroni's or Dunnett's multiple range test as indicated. Alternatively analysis was performed by Student's t-test. Where potency estimates are given these are pEC50 values (−log10 of the molar concentration giving 50% of the maximal response).

[2] = target: T2, GLP-1R (native, rat insulinoma cell line INS-1E) (Rattus norvegicus, UniProt P32301); assay: cAMP generation in INS-1E cells; type: cell-based
T2 construct: the rat insulinoma cell line, INS-1E, with native expression of the GLP-1R; endogenous in cells; host or cells: INS-1E rat insulinoma cells (gift of Prof. C.B. Wollheim)
T2 sequence (P32301 22-463): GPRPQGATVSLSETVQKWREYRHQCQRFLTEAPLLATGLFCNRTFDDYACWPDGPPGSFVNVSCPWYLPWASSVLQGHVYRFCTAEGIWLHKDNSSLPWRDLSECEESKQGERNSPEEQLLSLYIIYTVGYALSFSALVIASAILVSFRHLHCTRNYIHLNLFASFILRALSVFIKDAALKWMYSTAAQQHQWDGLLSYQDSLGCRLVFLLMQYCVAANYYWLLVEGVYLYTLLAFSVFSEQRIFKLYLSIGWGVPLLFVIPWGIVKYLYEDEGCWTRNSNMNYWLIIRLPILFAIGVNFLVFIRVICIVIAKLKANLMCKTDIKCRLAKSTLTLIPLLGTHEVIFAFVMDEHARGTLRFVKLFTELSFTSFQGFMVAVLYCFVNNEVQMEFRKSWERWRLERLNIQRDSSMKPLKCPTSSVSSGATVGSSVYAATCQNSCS
Description: as §1, §2, §3, §4

[3] = system: adenylyl cyclase; assay: cAMP generation by direct activation of adenylyl cyclase with forskolin; type: biochemical; conditions: data not shown
Description: Generation of cAMP by cell membranes was determined based on previously published methods, [21]. Membranes were prepared from confluent cell monolayers grown in 80 cm^2 flasks. Cells were washed with 5 ml HBS (154 mM NaCl, 10 mM HEPES, pH 7.4, 37°C), detached using harvesting buffer (154 mM NaCl, 10 mM HEPES, 5.4 mM EDTA, pH 7.4, 37°C) and collected by centrifugation (200 g, 2 min, 4°C). The cell pellet was resuspended in 1 ml of homogenization buffer (10 mM HEPES, 10 mM EDTA, pH 7.4) and sonicated (Sonifier Ultrasonic Cell Disruptor; Branson, CT) at 30% of the maximal amplitude for 3×5 s at ∼30 s intervals before centrifugation (30,000 g, 4°C, 10 min). After removal of the supernatant, pellets were collected in resuspension buffer (10 mM HEPES, 0.1 mM EDTA, pH 7.4), protein concentration adjusted to 1 mg/ml and stored in aliquots at −80°C until assay. Generation of cAMP was determined in 100 µl containing: 10 mM HEPES, 12 mM MgCl2, 60 mM NaCl, 1.2 mM EDTA, 1.2% w/v BSA, 5% DMSO, 480 µM ATP, 2 mM IBMX, 10 µM GTP, 20 µg membrane and ligands as indicated. […]
as §3

[4] = system: GLP-1R; conditions: ref [7]; cited from earlier work
[5] = system: GLP-1R; conditions: unclear whether additivity or true potentiation; ref [33]; cited from earlier work
[6] = target: T1, human GLP-1R; conditions: earlier studies; interpretation may be compromised by adverse effects of compound 2; ref [7]; cited from earlier work
Description: Given its physiological roles, the GLP-1R is targeted for treatment of type 2 diabetes. […] Such proteolysis is thought to remove biological activity.

T1 sequence (P43220 24-463): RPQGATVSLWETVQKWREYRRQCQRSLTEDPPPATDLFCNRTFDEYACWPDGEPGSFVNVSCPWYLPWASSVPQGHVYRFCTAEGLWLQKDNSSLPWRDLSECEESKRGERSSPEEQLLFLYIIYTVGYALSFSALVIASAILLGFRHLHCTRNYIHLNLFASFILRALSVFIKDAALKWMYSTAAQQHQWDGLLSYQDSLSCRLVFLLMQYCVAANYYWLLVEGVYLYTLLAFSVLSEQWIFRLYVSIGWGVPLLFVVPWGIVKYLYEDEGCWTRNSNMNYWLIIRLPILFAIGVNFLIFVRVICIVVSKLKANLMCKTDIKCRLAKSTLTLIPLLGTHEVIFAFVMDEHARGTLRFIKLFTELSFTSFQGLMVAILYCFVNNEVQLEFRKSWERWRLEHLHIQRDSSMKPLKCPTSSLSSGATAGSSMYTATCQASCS

With `CC(C)(C)Nc1nc2cc(Cl)c(Cl)cc2nc1S(C)(=O)=O` [compound 2, 6,7-dichloro-2-methylsulfonyl-3-N-tert-butylaminoquinoxaline] the “time of peak cAMP response” value ([1]; 1 µM compound 2, IBMX) was 30 min, the “cAMP response over time (in words)” value ([1]; 1 µM, over 60 min, IBMX, 5% DMSO, n = 3) was “evoked a more robust increase, which peaked at 30 min and then declined” and the “cAMP response (in words)” value ([1]; concentration-response, 15 min, IBMX) was “at >3 µM caused progressively lower cAMP responses, resulting in a bell-shaped concentration-response curve”. For the same compound, the “maximal response (Emax), cAMP” value ([1]; no pretreatment (buffer 10 min), 15 min challenge, IBMX, pH 7.4, 37°C, mean±s.e.m., n = 3) was 1908±91 pmol/mg protein, the “pEC50, cAMP” value ([1]; no pretreatment (buffer 10 min), 15 min challenge, IBMX, compound 2: rising phase of bell-shaped curve, mean±s.e.m., n = 3) was 5.94±0.04 and the “Emax as % of the GLP-1 7–36 amide response, cAMP” value ([1]; no pretreatment, 15 min challenge, IBMX) was 72%. The “pEC50, cAMP, after preincubation with GLP-1 9–36 amide” value ([1]; preincubated 10 min with 1 µM GLP-1 9–36 amide, 15 min challenge, IBMX, compound 2: rising phase, mean±s.e.m., n = 3) was 6.55±0.07, the “cAMP elevation (INS-1E)” value ([2]; 3 µM compound 2 alone, 15 min) was 40±8 pmol/mg protein and the “cAMP response in INS-1E (in words)” value ([2]; 15 min, 10 mM glucose, IBMX) was “elevated cAMP with low-potency”. For the same compound, the “Emax as % of that evoked by GLP-1 7–36 amide, cAMP (INS-1E)” value ([2]; compound 2 alone, concentrations greater than 10 µM not tested) was 34%, the “effect on forskolin-stimulated cAMP generation” value [3] was “inability of compound 2 to influence cAMP generation” and the “effect on GLP-1 7–36 amide-mediated internalization of the GLP-1R” value [4] was “can inhibit GLP-1 7–36 amide-mediated internalization of the GLP-1R”. The “effect on activity of GLP-1 9–36 amide” value [5] was “may increase the activity of GLP-1 9–36 amide” and the “effect on GLP-1 7–36 amide potency (cAMP)” value [6] was “actually reduced GLP-1 7–36 amide potency”.
